Measurements published in US5932619A, “Method for preventing sexually transmitted diseases” (Rush-Presbyterian, St. Luke's Medical Center, priority 1997, dated 1999).
Converted amounts (≈) assume the structure as drawn. “Also recorded” adds a separate entry of the source.

How the values were obtained:
[1] = tested on: Neisseria gonorrhea; assay: Bacterial multiplication assay (gonococci); type: cell-based
Method: This example illustrates the inhibitory effect for several of the inhibitory agents of this invention on Neisseria gonorrhea using a bacterial multiplication assay. Neisseria gonorrhea isolated from local uncomplicated cases of gonorrhea was verified by Gram stain, oxidase reactivity, and sugar fermentation. The titer of log-phase cultures was adjusted by dilution in GC broth to about 10^8 colony forming units per milliliter. Samples were diluted with broth containing no additives (control) and serial dilutions of the test agents (1000 μg/ml to 0.1 μg/ml). The resulting cultures were incubated at 37° C. for 4 hours. Five serial dilutions were made with GC broth; each dilution was inoculated onto GC agar plates. The inoculated plates were incubated overnight at 37° C. and the resultant gonococcal colonies were counted using bright-field microscopy.

[2] = tested on: HSV (type 2, strain 333); assay: Anti-HSV plaque assay on Vero cells; type: cell-based, herpes simplex virus
Method: Viral infectivity was measured by co-culturing herpes simplex virus (HSV) with Vero (African green monkey kidney) cells in phosphate-buffered solutions.
The test agent was serially diluted (0.1 μg/ml to 500 μg/ml) in phosphate-buffered saline (PBS). Each dilution was mixed with HSV (type 2, strain 333). Samples (1 ml) of each mixture were plated in triplicate on washed and drained monolayers of Vero (African green monkey kidney) cells on the bottom of […] flasks. The initial titer in each culture was determined as plaque forming units per milliliter using control cultures with no added test agents. Flasks were incubated at 37° C. for 2 hours and the medium (containing virus and test agent) removed. After washing the cells with PBS, the cells were cultured in supplemented medium 199 (Sigma Chem., cat. no. M9163) for 3 days. After culturing, the cells were stained with Giemsa and the number of viral plaques was determined by phase contrast microscopy. After correcting for dilutions, the viral titer was estimated from the number of plaques. Data were also expressed as the percentage of plaques relative to the control samples (not exposed to test agents). […] The concentration of test agent that was required to reduce the viral titer by 50 percent (IC50) was estimated with curve-fitting software from plots of plaque-forming units per milliliter against the concentration of test agent.

[3] = tested on: sperm; assay: Sperm acrosomal loss; type: cell-based; settings: 0.5 μg/ml, read-out: maximal acrosomal loss induced
[4] = tested on: HIV-1; assay: Viral binding inhibition assay (syncytia formation in MT2 cells); type: cell-based, HIV-1 (strain III)
Method: Cultures of MT2 cells (plated in 96-well cell culture plates at about 10,000 cells per well) were grown in a RPMI 1640 medium (Gibco, cat. no. 320-1867AG) which was supplemented with 10 percent fetal bovine serum, 100 I.U./ml penicillin, 100 μg/ml streptomycin, 20 μg/ml gentamicin, and 25 mM HEPES.
The resulting cultures were incubated at 37° C. […] The cultures were then scored microscopically for syncytia formation. […] Data are expressed as percent of a control value (no added test agent) viral titer and plotted as a function of concentration of the test agent. lC50 values (concentration of agent causing 50 percent inhibition) were calculated from the plots of concentration versus viral titer using curve-fitting software.

[5] = tested on: spermatozoa; type: cell-based; settings: concentrations as high as 20 mg/ml
[6] = tested on: Lactobacillus gasseri; assay: Growth of normal vaginal flora bacterium in culture; type: cell-based
Method: This example illustrates the effect of the inhibitory agents of this invention on the normal vaginal flora. Lactobacillus gasseri, which is found in normal vaginal flora, was obtained from the American Type Culture Collection (Rockville, Md.) and cultured under anaerobic conditions at 37° C. in the presence of the desired test agents. Control samples without added test agents were also run. Samples were collected at twenty minute intervals starting at 120 minutes after the start of incubation through 240 minutes. The absorbance at 550 nm was used to estimate the cell density and inhibitory effects. Nonoxynol-9 was also evaluated for comparison purposes.

[7] = tested on: rabbit spermatozoa; assay: Contraceptive effect: rabbit sperm treated before artificial insemination; type: in vivo
Method: Rabbit spermatozoa were collected and then diluted in a TALP buffer containing glucose, lactate, and pyruvate. Test compounds were dissolved in the same buffer system.

[8] = tested on: Chlamydia trachomatis (serotype E/UW-5/CS); assay: Chlamydia multiplication assay in HeLa monolayers; type: cell-based
Method: This example illustrates the inhibitory effect of several of the inhibitory agents of this invention on Chlamydia trachomatis using a multiplication assay. Immediately before the assay, cryopreserved Chlamydia trachomatis (serotype E/UW-5/CS) samples were quickly thawed at 37° C. and suspended in Hank's balanced salt solution (HBSS) by mild sonication. Serial 1:10 dilutions (10^-1 to 10^-7) of the bacterial suspension were made. HeLa monolayers on coverslips were inoculated with 100 μl of the chlamydia samples in the presence (0.1, 1.0, 10, 100, and 1000 μg/ml) or absence of the test agents. After one hour, the monolayers were washed with HBSS to remove free chlamydia and test agent (if present) and then incubated for 48 hours in HBSS at 37° C.
After the medium was removed, the HeLa monolayer samples were fixed in methanol and washed. The cells were then treated with Kallsted Chlamydia Culture Confirmation fluorescein-conjugated Monoclonal Antibody for 30 minutes at room temperature in a dark, humidified chamber. The cells were then washed with water and covered with coverslip using a mounting medium. Inclusions due to chlamydia infection were visualized with a fluorescent microscope as green fluorescence.

[9] = tested on: human immunodeficiency virus (HIV-1, RF strain); assay: microbe, parasite or virus in culture; settings: Human immunodeficiency virus 1, read-out: kill of the virus in culture
Method: For the cell-free virus inactivation assay, HIV is added to the test agent in water and incubated for about 2 minutes. After removal of the test agent by dilution, the treated virus is added to target cells and incubated for 7 days.

[10] = tested on: rabbit spermatozoa; assay: Motility of rabbit sperm in the contraceptive test; type: cell-based; settings: rabbit sperm in TALP buffer
Method: Rabbit spermatozoa were collected and then diluted in a TALP buffer containing glucose, lactate, and pyruvate. Test compounds were dissolved in the same buffer system. […] Female rabbits were then artificially inseminated with about 0.5 ml of buffer containing about 22.5-30×10^6 sperm. For controls (i.e., sperm and buffer containing no added contraceptive agents), fertilization averaged about 96 percent.

[11] = physchem; type: physicochemical
[12] = tested on: sheep testicular hyaluronidase; assay: Hyaluronidase inhibition (hyaluronic acid hydrolysis); type: biochemical; settings: for IC50: pH 5.5, 10 minutes preincubation
Method: Hyaluronidase activity was quantitatively determined by measuring the extent of hyaluronic acid hydrolysis (i.e., the concentration of N-acetylglucosamine-reactive material formed from enzyme activity). Reaction mixtures (0.25 ml) containing the following were prepared: test compound (variable concentration); 0.1 M sodium acetate; 0.15 M sodium chloride; pH adjusted to 5.5; 7.2 units sheep testicular hyaluronidase (Sigma, Type III; H-2251) contained in an acetate buffer; 0.3 mg/ml hyaluronic acid (Sigma, from bovine vitreous humor; H-7630). The enzyme was preincubated with the test agent (1 mg/ml for screening purposes) for 10 minutes before starting the reaction by the addition of hyaluronic acid. The enzyme reaction was determined using the method of Aronson and Davidson (J. Biol. Chem. 241 437-440 (1967)). The reaction mixture was incubated for 30 minutes at room temperature. The reaction product was determined colorimetrically with p-dimethylaminobenzaldehyde (Reissig et al., J. Biol. Chem. 217 959-966 (1965)) by measuring the absorbance at 545 nm.
The reversibility of the hyaluronidase was determined by evaluating enzyme activity at different levels of enzyme (Ackermann and Potter, Proc. Soc. Exp. Biol. Med. 72 1-9 (1949)).

[13] = tested on: vaginal/cervical epithelial and other cells; settings: concentrations as low as; cited from earlier work
[14] = tested on: MT2 cells; assay: Cytotoxicity towards host cells of the viral binding assay; type: cell-based; settings: at the levels of the HIV viral binding assay
Method: Serial dilutions of the test compounds (ranging from 0.1 μg/ml to 1.0 mg/ml) were added to HIV-1 virus such that 50 μl inoculum produced between 70 to 100 syncytia per well in untreated wells containing MT2 cells. The HIV-1 used was strain III, propagated in, and harvested from, a T4-lymphobastoid cell line. Each serial dilution of the test compound with virus was placed in each of three wells containing MT2 cells. The test compound alone was added to a fourth well containing MT2 cells to test for possible cytotoxicity. Triplicate virus control samples (no added test compounds but containing the equivalent amounts of the RPMI medium) were also included.

Molecule: O=C(O)C(OC(C(=O)O)c1ccccc1)c1ccccc1 (stereo not drawn) [H2 SO4 -modified Mandelic Acid, 2,2'-diphenyl-2,2'-oxy-di-acetic acid]
- inhibition of gonococcal multiplication/growth ([1]; 100 μg/ml): completely inhibited; also recorded: complete inhibition
- IC50 ([1]; Neisseria, gonococcal multiplication, 4 hours): 15 to 17 µg/mL (≈ 0.0524 to 0.0594 mM)
- HSV inhibition in culture ([2]; 10 μg/ml): completely inhibited
- IC99.9 ([2]; Vero, read-out: Inhibition 3-Log (99.9 percent), concentration): 6.8 µg/mL
- IC99.99 ([2]; Vero, read-out: Inhibition 4-Log (99.99 percent), concentration): 10 µg/mL
- Emax at 0.5 µg/mL [3]: ~70%
- IC50 ([4]; Human immunodeficiency virus 1, HIV-1, MT2 cells): 0.3 µg/mL (≈ 0.00105 mM)
- IC100 ([4]; Human immunodeficiency virus 1, read-out: Complete Inhibition (lowest concentration at which complete inhibition occurs), HIV-1, MT2 cells): 5 µg/mL
- sperm motility [5]: did not result in the loss of sperm motility
- effect on normal vaginal flora [6]: no apparent adverse effects
- effect on the growth of Lactobacillus ([6]; 5 mg/ml): did not have any effect; also recorded: not affected
- fertilization (average) ([7]; 5 mg/ml added to sperm/buffer, about 15 minutes at 37° C., controls about 96 percent): about 10%
- conception ([7]; rabbit sperm treated with about 5 mg/ml prior to artificial insemination): nearly complete inhibition of conception
- IC50 [8]: 0.05 µg/mL (≈ 0.000175 mM)
- killing at 10 µg/mL [9]: ~99%
- sperm motility [10]: did not effect sperm motility
- water solubility (in words) [11]: water soluble
- solubility ([11]; water): ~350 mg/mL (≈ 1220 mM)
- reversibility of hyaluronidase inhibition ([12]; enzyme activity at different levels of enzyme): irreversible
- IC50 [12]: 8.4 µg/mL (≈ 0.0293 mM)

Molecule: Nonoxynol-9 [reference compound]
- inhibition of Lactobacillus gasseri growth ([6]; 0.5 mg/ml): about 60%
- concentration that can injure cells [13]: about 0.0005%
- cytotoxicity towards the MT2 cells [14]: did show cytotoxic effects
- IC50 [12]: inactive
